Test results: ChEMBL document CHEMBL3091344, “17(E)-picolinylidene androstane derivatives as potential inhibitors of prostate cancer cell growth: antiproliferative activity and molecular docking studies” (Bioorg Med Chem, 2013)

Experiments:
MRC5 [1] = test: Cytotoxicity against human MRC5 cells assessed as growth inhibition after 48 hrs by SRB assay; format: cell-based; details: MRC5, 48 h
PC-3 [2] = test: Cytotoxicity against human PC3 cells assessed as growth inhibition after 48 hrs by SRB assay; format: functional, cell-based; details: PC-3, 48 h
MDA-MB-231 [3] = test: Cytotoxicity against ER-negative human MDA-MB-231 cells assessed as growth inhibition after 48 hrs by SRB assay; format: functional, cell-based; details: MDA-MB-231, 48 h
MCF7 [4] = test: Cytotoxicity against ER-positive human MCF7 cells assessed as growth inhibition after 48 hrs by SRB assay; format: functional, cell-based; details: MCF7, 48 h
MRC5 [5] = test: Cytotoxicity against human MRC5 cells assessed as growth inhibition after 48 hrs by MTT assay; format: cell-based; details: MRC5, 48 h
HT-29 = test: Cytotoxicity against human HT-29 cells assessed as growth inhibition after 48 hrs by MTT assay; format: functional, cell-based; details: HT-29, 48 h
HeLa = test: Cytotoxicity against human HeLa cells assessed as growth inhibition after 48 hrs by MTT assay; format: functional, cell-based
PC-3 [6] = test: Cytotoxicity against human PC3 cells assessed as growth inhibition after 48 hrs by MTT assay; format: functional, cell-based; details: PC-3, 48 h
MDA-MB-231 [7] = test: Cytotoxicity against ER-negative human MDA-MB-231 cells assessed as growth inhibition after 48 hrs by MTT assay; format: functional, cell-based; details: MDA-MB-231, 48 h
MCF7 [8] = test: Cytotoxicity against ER-positive human MCF7 cells assessed as growth inhibition after 48 hrs by MTT assay; format: functional, cell-based; details: MCF7, 48 h

Row | SMILES | IC50 (MRC5 [1]) [µM] | IC50 (PC-3 [2]) [µM] | IC50 (MDA-MB-231 [3]) [µM] | IC50 (MCF7 [4]) [µM] | IC50 (MRC5 [5]) [µM] | IC50 (HT-29) [µM] | IC50 (HeLa) [µM] | IC50 (PC-3 [6]) [µM] | IC50 (MDA-MB-231 [7]) [µM] | IC50 (MCF7 [8]) [µM]
1 | C[C@]12CCC(=O)C=C1CC[C@@H]1[C@@H]2CC[C@]2(C)/C(=C/c3ccccn3)CC[C@@H]12 | > 100 | 12.9 | > 100 | > 100 | – | – | – | – | – | –
2 | C#CCC[C@@]1(C)C(=O)CC[C@@H]2[C@@H]1CC[C@@]1(C)[C@H]2CC[C@@]1(O)Cc1ccccn1 | – | – | – | – | > 100 | 6.5 | > 100 | > 100 | > 100 | > 100
3 | C[C@]12CC[C@H]3[C@@H](CC[C@@]4(O)C=CCC[C@]34C)[C@@H]1CC/C2=C\c1ccccn1 | – | – | – | – | > 100 | 57.2 | 49.4 | > 100 | > 100 | > 100
4 | C[C@]12CC[C@H]3[C@@H](CC[C@]45O[C@H]4C(=O)CC[C@]35C)[C@@H]1CC/C2=C\c1ccccn1 | – | – | – | – | > 100 | – | – | 14.3 | 88.3 | 50.7
5 | C[C@]12CC[C@H]3[C@@H](CC[C@@]4(O)C=CCC[C@]34C)[C@@H]1CC[C@@]2(O)Cc1ccccn1 | – | – | – | – | > 100 | > 100 | > 100 | > 100 | > 100 | > 100
6 | C[C@]12CC[C@H]3[C@@H](CC[C@]45O[C@H]4C(=O)CC[C@]35C)[C@@H]1CC[C@@]2(O)Cc1ccccn1 | – | – | – | – | > 100 | – | – | 65.5 | 10.4 | > 100
7 | C[C@]12CC/C(=N\N)C=C1CC[C@@H]1[C@@H]2CC[C@]2(C)/C(=C/c3ccccn3)CC[C@@H]12 | – | – | – | – | > 100 | 51.7 | > 100 | 5.9 | 17.1 | 13.6
8 | C[C@]12CC/C(=N\N)C=C1CC[C@@H]1[C@@H]2CC[C@@]2(C)[C@H]1CC[C@@]2(O)Cc1ccccn1 | – | – | – | – | > 100 | > 100 | > 100 | > 100 | 32.5 | 6.3
9 | C[C@]12CCC(=O)C=C1CC[C@@H]1[C@@H]2CC[C@@]2(C)[C@H]1CC[C@@]2(O)Cc1ccccn1 | > 100 | > 100 | > 100 | > 100 | – | – | – | – | – | –
10 | C[C@]12CC[C@H](O)CC1=CC[C@@H]1[C@@H]2CC[C@]2(C)C(c3cccnc3)=CC[C@@H]12 [ABIRATERONE] | – | – | – | – | – | – | – | 9.32 | – | –
11 | COc1cccc2c1C(=O)c1c(O)c3c(c(O)c1C2=O)C[C@@](O)(C(=O)CO)C[C@@H]3O[C@H]1C[C@H](N)[C@H](O)[C@H](C)O1 [DOXORUBICIN] | – | – | – | – | – | 0.32 | – | – | – | 0.75
12 | C[C@]12CCC(=O)C(O)=C1CC[C@@H]1[C@@H]2CC[C@]2(C)C(=O)CC[C@@H]12 [FORMESTANE] | – | – | – | – | > 100 | > 100 | – | – | – | > 100
